Molecules are shown by their SMILES.

The assay deals with fontane variety of potatoes. The procedure: There now follows a description of an experimental trial by the inventors
The goal of the trial was to recondition French fry tubers in a 2-3 week period to improve fry colour and maintain brittle sprouts.
3 trial cells were operated, each 85 cubic meters in size and holding fontane variety of potatoes. The stores holding each trial cell stores were warmed to 12.5° C.
A sample was taken from each cell. Each sample was made up of 25 tubers from the front and the back of the store. The tubers selected were showing signs of sprouting in some degree and have had variable and in some cases poor fry color results.
The first sample was sent for a benchmark Soleye fry colour measurement. Soleye is an optical colour reader used to determine fry colour.
Gradually reducing the ethylene level by 0.5 ppm per day from […] @ 12 C
First 7 days 4 ppm and from day 8 reduced to continuous 2 ppm @ 12 C

For `C=C` [ethylene], the “Soleye fry colour score (the lower the score, the better the fry colour)” value (after reconditioning, samples from store 64: continuous 2 ppm ethylene @ 12 C, FIG. 3) was determined as 0. In addition, the “sprout condition following reconditioning” value (cells 56, 60 and 64, ethylene programmes at 12 C, 2-3 week period, all tubers) is listed as “maintained brittle sprouts”.

Values taken from patent US20210337839A1, “SYSTEM AND METHOD FOR RECO[…]” (Restrain Company Limited, priority 2020, published 2021).
